Common to all, as to format: cell-based
In assay [1] the test system is PD1-ss+10aa/Gaussia Luciferase. Nature of the assay: Dox induced PD1-ss-Gluc assay. To be noted: Flp-In 293 T-REx cells, doxycycline, 24 hours; read-out: PD1ss Gluc IC50. An outline of the steps: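 Stable Flp-In 293 T-REx line expressing doxycycline-inducible Gaussia luciferase fused to the PD1 signal sequence plus 10 amino acids. Cells plated the day before, then exposed to compound dilutions in DMSO/media containing doxycycline at 37 °C, 5% CO2.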

Assay [2] has as its system TNFα-FL/Gaussia Luciferase. Nature of the assay: Dox induced TNFα-FL-Gluc assay. To be noted: Flp-In 293 T-REx cells, doxycycline, 24 hours; read-out: TNFa FL Gluc IC50. An outline of the steps:
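Stable Flp-In 293 T-REx line expressing full-length TNFα (aa 1-233) fused at its C-terminus to Gaussia luciferase under doxycycline-inducible control. Cells plated the day before, then given compound dilutions in DMSO/media containing doxycycline and incubated at 37 °C, 5% CO2.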

Assay [3] deals with NCI-H929 multiple myeloma cell line. Put plainly: H929 assay (cell viability, Celltiter-Glo). To be noted: Homo sapiens, NCI-H929; 48 hours, cell viability; read-out: H929 EC50. An outline of the steps:
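Cells plated in RPMI 1640 with 10% FBS and 2 mM glutamine, treated with compound dilutions in DMSO/media. Incubation 48 h at 37° C, 5% CO2. Viability from luciferase luminescence signal.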
(In general: ATP-based viability assays read luminescence as a measure of living cells.)

Assay [4] deals with Prl-ss+10aa/Gaussia Luciferase. Nature of the assay: Prl-ss-Gluc assay (constitutively active or 24 hr Dox inducible). To be noted: Flp-In 293 T-REx cells, 24 hours; read-out: Prl IC50. An outline of the steps:
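Stable Flp-In 293 T-REx lines express Prl signal sequence+10aa fused to Gaussia luciferase, either constitutively (pcDNA5/FRT) or under the T-REx promoter (pcDNA5/FRT/TO). Cells plated the day before; compounds in DMSO/media (with doxycycline for the inducible line, 24 h) incubated at 37 °C, 5% CO2.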

The subject of assay [5] is VCAMss+10aa/Gaussia Luciferase. Put plainly: VCAM-ss-Gluc assay (constitutively active or Dox induced). To be noted: Flp-In 293 T-REx cells, 24 hours. The protocol: Assays Constitutively Active VCAM-ss-Gluc Assay
Transfected cells were selected for resistance to the selectable markers Hygromycin and Blasticidin to create a stable cell line that constitutively expressed the VCAMss+ 10aa/Gaussia Luciferase fusion protein. The day before assay, cells were trypsinized and plated in 384-well tissue culture plates. The next day, culture media was removed from the wells and replaced with fresh media. Compound dilutions in DMSO/media were added to the wells and incubated at 37° C., 5% CO2.
Dox Induced VCAM-ss-Gluc Assay
Transfected cells were selected for resistance to the selectable markers Hygromycin and Blasticidin to create a stable cell line that contained the VCAMss+10aa/Gaussia Luciferase cDNA insert whose expression was regulated under the T-REx™ system. The day before assay, cells were trypsinized and plated in 384-well tissue culture plates. The next day, compound dilutions in DMSO/media containing doxycycline were added to the wells and incubated at 37° C., 5% CO2.

The next assay deals with HER3ss-Gluc. Nature of the assay: HER3ss assay. To be noted: HEK-293T T-rex cells, transient transfection, doxycycline, 24 h; read-out: HER3 ss IC50. An outline of the steps:
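HEK-293T T-REx cells were transiently transfected with HER3 signal sequence (plus four mature-domain residues) fused upstream of mature Gaussia luciferase. Cells were induced with doxycycline (1 μg/ml) and exposed to increasing compound concentrations for 24 h, then secreted luciferase in the conditioned medium was read by luminescence.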

In assay [6] the test system is BT474 breast tumor cell line. Put plainly: BT474 assay (Alamar blue). To be noted: Homo sapiens, BT-474, 72 h. The protocol: (§1) BT474 is a human breast tumor cell line. JJN3 is a human plasma cell leukemia cell line. […] Cells were seeded at 100 000 cells/mL. Aliquots of 5000 cells (50 μL) were added to each well in black, clear bottom 96-well plates. Compounds or control (50 uL of 1% DMSO in cell culture medium) were added to the cells to the indicated final concentrations and cells were incubated for 72 h (unless otherwise specified). After incubation was complete, Alamar blue (10 uL of a 1 mg/mL solution) was added to each well and plates were incubated for 5 h. Fluorescence was then measured (excitation 545 nm, emission 590 nm) and is reported as […] normalized to DMSO control.

In assay [7] the test system is JJN3 plasma cell leukemia cell line. Put plainly: JJN-3 assay (Alamar blue). To be noted: Homo sapiens, 72 h. How it is done: as §1
For orientation: Resazurin is reduced to fluorescent resorufin, in cell work by metabolically active cells.

Numbered stars: 1 amine (or outer) side, 2 acyl side, 3 side chain; on linkers, the order of the positions; unused ones are H or OH. Square brackets hold non-standard residues; d marks the D form. Peptide text beside a SMILES is read from it. NMeTrp(1-(4-Br-benzyl)) = CN[C@@H](Cc1cn(Cc2ccc(Br)cc2)c2ccccc12)C(=O)O; X17 = CN([C@@H](Cc1cn(-c2ccccc2)c2ccccc12)C(=O)[*:2])[*:1]; Butanoyl(2R-oxy,4-CN) = N#CCC[C@@H](O)C(=O)O; Nva(5,5,5-F3) = N[C@@H](CCC(F)(F)F)C(=O)O; Abu(4,4,4-F3) = N[C@@H](CC(F)(F)F)C(=O)O; NMeBta = CN[C@@H](Cc1csc2ccccc12)C(=O)O; Ala(cPr) = N[C@@H](CC1CC1)C(=O)O; NMeL = CN[C@@H](CC(C)C)C(=O)O; NMeA = CN[C@@H](C)C(=O)O

`CC(C)C[C@@H]1NC(=O)[C@H](Cc2cn(Cc3ccc(F)c(F)c3)c3ccccc23)N(C)C(=O)[C@H](CC(C)C)NC(=O)[C@H](CC(C)C)N(C)C(=O)[C@H](CC(C)C)NC(=O)[C@@H](CCC#N)OC(=O)[C@H](C)N(C)C1=O` [C-28] (HELM PEPTIDE1{L.[meA].[N#CCC[C@@H](O[*:1])C(=O)[*:2]].L.[meL].L.[CN([C@@H](Cc1cn(Cc2ccc(F)c(F)c2)c2ccccc12)C(=O)[*:2])[*:1]]}$PEPTIDE1,PEPTIDE1,1:R1-7:R2$$$V2.0): the IC50 was 27 nM in assay [1]; 125 nM in assay [2]; 428 nM in assay [4]; 61 nM in assay [5]; 60 nM with HER3ss-Gluc. Further, the EC50 in assay [3] is 611 nM; in assay [6], 940 nM; in assay [7], 140 nM.

For the molecule `CC(C)C[C@@H]1NC(=O)[C@H](Cc2csc3ccccc23)N(C)C(=O)[C@H](CC(C)C)NC(=O)[C@H](CC(C)C)N(C)C(=O)[C@H](CC(C)C)NC(=O)[C@@H](CCC#N)OC(=O)[C@H](C)N(C)C1=O` [C-29] (HELM PEPTIDE1{L.[meA].[N#CCC[C@@H](O[*:1])C(=O)[*:2]].L.[meL].L.[CN([C@@H](Cc1csc2ccccc12)C(=O)[*:2])[*:1]]}$PEPTIDE1,PEPTIDE1,1:R1-7:R2$$$V2.0), the IC50 in assay [1] was 100 nM; in assay [2] it was 314 nM; in assay [4] it was 3400 nM; in assay [5], 26 nM; with HER3ss-Gluc, 22 nM. The figures for the EC50 in assay [3], in assay [6] and in assay [7] were 2640 nM, 1340 nM and 316 nM, respectively.

On to `CC(C)C[C@@H]1NC(=O)[C@H](Cc2cn(Cc3cncc(F)c3)c3ccccc23)N(C)C(=O)[C@H](CC(C)C)NC(=O)[C@H](CC(C)C)N(C)C(=O)[C@H](CC(C)C)NC(=O)[C@@H](CCC#N)OC(=O)[C@H](C)N(C)C1=O` [C-35] (HELM PEPTIDE1{L.[meA].[N#CCC[C@@H](O[*:1])C(=O)[*:2]].L.[meL].L.[CN([C@@H](Cc1cn(Cc2cncc(F)c2)c2ccccc12)C(=O)[*:2])[*:1]]}$PEPTIDE1,PEPTIDE1,1:R1-7:R2$$$V2.0), for which the IC50 in assay [1] was 108 nM; in assay [2], 373 nM; in assay [4], 1250 nM; in assay [5] it was 207 nM; in the assay with HER3ss-Gluc, 126 nM. For the same molecule, the EC50 in assay [3] came to 2840 nM; in assay [6], 1260 nM; in assay [7], 242 nM.

On to `CC(C)C[C@@H]1NC(=O)[C@H](Cc2cn(Cc3ccc(F)nc3)c3ccccc23)N(C)C(=O)[C@H](CC(C)C)NC(=O)[C@H](CC(C)C)N(C)C(=O)[C@H](CC(C)C)NC(=O)[C@@H](CCC#N)OC(=O)[C@H](C)N(C)C1=O` [C-36] (HELM PEPTIDE1{L.[meA].[N#CCC[C@@H](O[*:1])C(=O)[*:2]].L.[meL].L.[CN([C@@H](Cc1cn(Cc2ccc(F)nc2)c2ccccc12)C(=O)[*:2])[*:1]]}$PEPTIDE1,PEPTIDE1,1:R1-7:R2$$$V2.0), for which the IC50 in assay [1] stood at 94 nM; in assay [2] it was 358 nM; in assay [4], 1090 nM; in assay [5], 351 nM; with HER3ss-Gluc, 345 nM. The EC50 in assay [3] was determined as 2870 nM; in assay [6] it was 1540 nM; in assay [7], 289 nM.

Turning to `CC(C)C[C@@H]1NC(=O)[C@H](Cc2cn(Cc3ccc(Br)cc3)c3ccccc23)N(C)C(=O)[C@H](CC(C)C)NC(=O)[C@H](CC(C)C)N(C)C(=O)[C@H](CC2CC2)NC(=O)[C@@H](CCC#N)OC(=O)[C@H](C)N(C)C1=O` [C-38] (cyclo([Ala(cPr)][NMeL]L[NMeTrp(1-(4-Br-benzyl))]L[NMeA][Butanoyl(2R-oxy,4-CN)])), the 50% inhibitory concentration (IC50) came to 105 nM in assay [1]; 389 nM in assay [2]; 6110 nM in assay [4]; 320 nM in assay [5]; 317 nM with HER3ss-Gluc. Besides, the EC50 in assay [3] worked out at 3700 nM; in assay [6] it was 3880 nM; in assay [7] it was 957 nM.

Consider `CCCC[C@@H]1NC(=O)[C@@H](CCC#N)OC(=O)[C@H](C)N(C)C(=O)[C@H](CC(C)C)NC(=O)[C@H](Cc2cn(Cc3ccc(C(F)(F)F)cc3)c3ccccc23)N(C)C(=O)[C@H](CC(C)C)NC(=O)[C@H](CC(C)C)N(C)C1=O` [C-46] (HELM PEPTIDE1{L.[meA].[N#CCC[C@@H](O[*:1])C(=O)[*:2]].[Nle].[meL].L.[CN([C@@H](Cc1cn(Cc2ccc(C(F)(F)F)cc2)c2ccccc12)C(=O)[*:2])[*:1]]}$PEPTIDE1,PEPTIDE1,1:R1-7:R2$$$V2.0), for which the IC50 in assay [1] worked out at 35 nM; in assay [2], 296 nM; in assay [4] it was 15000 nM; in assay [5], 141 nM. For the same molecule, the results for the EC50 in assay [3], in assay [6] and in assay [7] were 3070 nM, 3120 nM and 640 nM, respectively.

As to `CC(C)C[C@@H]1NC(=O)[C@H](CC(C)C)N(C)C(=O)[C@H](CC(F)(F)F)NC(=O)[C@@H](CCC#N)OC(=O)[C@H](C)N(C)C(=O)[C@H](CCC(F)(F)F)NC(=O)[C@H](Cc2cn(Cc3ccc(Br)cc3)c3ccccc23)N(C)C1=O` [C-48] (cyclo(L[NMeTrp(1-(4-Br-benzyl))][Nva(5,5,5-F3)][NMeA][Butanoyl(2R-oxy,4-CN)][Abu(4,4,4-F3)][NMeL])), the IC50 in assay [1] was determined as 27 nM; in assay [2] it was 133 nM; in assay [4], 1340 nM; in assay [5] it was 36 nM. For the same molecule, the EC50 worked out at 1630 nM in assay [3], 1240 nM in assay [6] and 284 nM in assay [7].

Turning to `CC(C)C[C@@H]1NC(=O)[C@H](CC(C)C)N(C)C(=O)[C@H](CC(F)(F)F)NC(=O)[C@@H](CCC#N)OC(=O)[C@H](C)N(C)C(=O)[C@H](CCC(F)(F)F)NC(=O)[C@H](Cc2csc3ccccc23)N(C)C1=O` [C-49] (cyclo(L[NMeBta][Nva(5,5,5-F3)][NMeA][Butanoyl(2R-oxy,4-CN)][Abu(4,4,4-F3)][NMeL])), the IC50 came out at 168 nM in assay [1], 550 nM in assay [2], 22 nM in assay [5] and 17 nM with HER3ss-Gluc. Besides, the EC50 in assay [3] is 3370 nM; in assay [6] it was 1800 nM; in assay [7], 623 nM.

For the molecule `CC(C)C[C@@H]1NC(=O)[C@@H](CCC#N)OC(=O)[C@H](C)N(C)C(=O)[C@H](CCC(F)(F)F)NC(=O)[C@H](Cc2csc3ccccc23)N(C)C(=O)[C@H](CC(C)C)NC(=O)[C@H](CC(C)C)N(C)C1=O` [C-50] (cyclo(L[NMeBta][Nva(5,5,5-F3)][NMeA][Butanoyl(2R-oxy,4-CN)]L[NMeL])), the IC50 came to 201 nM in assay [1], 644 nM in assay [2], 9060 nM in assay [4] and 30 nM in assay [5]. Further, the EC50 in assay [3] is 4540 nM; in assay [6], 2450 nM; in assay [7], 1080 nM.

For `CC(C)C[C@@H]1NC(=O)[C@H](Cc2cn(-c3ccccc3)c3ccccc23)N(C)C(=O)[C@H](CC(C)C)NC(=O)[C@H](CC(C)C)N(C)C(=O)[C@H](CC(F)(F)F)NC(=O)[C@@H](CCC#N)OC(=O)[C@H](C)N(C)C1=O` [C-51] (cyclo(L[NMeA][Butanoyl(2R-oxy,4-CN)][Abu(4,4,4-F3)][NMeL]L[X17])), the IC50 turned out to be 133 nM in assay [1], 836 nM in assay [2] and 72 nM in assay [5]. Also, the concentration for a half-maximal effect (EC50) in assay [3] turned out to be 6200 nM; in assay [6] it was 3440 nM; in assay [7] it was 1070 nM.

By IC50 is commonly meant the concentration at which inhibition is half-maximal. What is called EC50 is the concentration that produces a half-maximal response.
